Assay results: patent publication US20240067637A1, “NAPHTHYRIDINE AND PYRIDO[3,4-c]PYRIDAZINE DERIVATIVES AS GABAA ALPHA 5 RECEPTOR MODULATORS” (Richter Gedeon Nyrt., priority 2020, published 2024)

Molecular target: human recombinant GABAA α5β3γ2 receptor (Homo sapiens (Human), UniProt P18507+P31644)
Experiment: Radioligand ([3H]Ro151788) receptor binding assay
Conditions: membranes of HEK cells expressing human recombinant GABAA α5β3γ2; 0.5 nM [3H]Ro151788; 60 minutes at 4° C.; read-out: hGABAA α5 Ki
Procedure: The GABAA α5β3γ2 protein used for the receptor binding assay was derived from membranes produced from HEK cells (Millipore CYL3073) expressing the human recombinant GABAA α5β3γ2 receptor. Cells were stored and cultured in-house according to the instructions provided by the vendor (Millipore). Cell pellet was homogenized in 10 times modified Krebs Henseleit buffer (membrane preparation buffer): 20 mM Tris, 120 mM NaCl, 100 mM KCl, 25 mM CaCl2 and 25 mM MgCl2 pH=7.4 at 4° C. using Ultra Turrax (Janke&Kunkel) maximal speed for 15 seconds. The homogenate was centrifuged at 40,000 g for 30 minutes at 4° C. Supernatant was discarded and the resulting pellet was washed in membrane preparation buffer. Pellet was resuspended in membrane preparation buffer and aliquots of 1.4 mL ampules were stored at −70° C. until use.
Receptor binding assays were performed in 96-well format in deep-well plates. For each 96-well plate one ampule of membrane homogenate was thawed and diluted in binding buffer (50 mM Tris pH=7.4, 100 mM KCl) and 200 μL was dispensed into each well. Radioligand [^3H]Ro151788 (Perkin Elmer: NET757250UC) was prepared in binding buffer and added to each well in 50 μL volume to give final concentration of 0.5 nM. Test compounds in suitable concentration(s) were added in additional 50 μL. The final assay volume was 300 μL. Incubation was carried out for 60 minutes at 4° C. For non-specific binding 10 μM unlabeled diazepam was used. After incubation samples were filtered over UniFilter® GF/BT using Filtermate Harvester (Perkin Elmer) and washed with 5×1 mL binding buffer. The plate was dried at 40° C. for an hour and 40 μL Microscint (Perkin Elmer) scintillation cocktail was added to each well. The plate was read in Microbeta (Perkin Elmer).
The specific radioligand binding (SB) was defined as the difference between total binding (Tot) and the non-specific binding (NSB). Results are expressed as a percent inhibition of specific binding obtained in the presence of compound of interest.
For IC50 and Ki determination a minimum of six drug concentrations in triplicate were used. IC50 values (i.e. concentration of compound giving 50% inhibition of specific binding) were calculated from concentration-displacement curves by sigmoidal fitting using Origin 7.5 software. Ki values (i.e. inhibition constants) were calculated using the Cheng-Prusoff equation Ki=IC50/[1+(L/KD)], where [L] is the radioligand concentration and KD the affinity of the labelled ligand for receptor. KD was determined from the Saturation analyses.

Chain of human recombinant GABAA α5β3γ2 receptor (P31644 32-462): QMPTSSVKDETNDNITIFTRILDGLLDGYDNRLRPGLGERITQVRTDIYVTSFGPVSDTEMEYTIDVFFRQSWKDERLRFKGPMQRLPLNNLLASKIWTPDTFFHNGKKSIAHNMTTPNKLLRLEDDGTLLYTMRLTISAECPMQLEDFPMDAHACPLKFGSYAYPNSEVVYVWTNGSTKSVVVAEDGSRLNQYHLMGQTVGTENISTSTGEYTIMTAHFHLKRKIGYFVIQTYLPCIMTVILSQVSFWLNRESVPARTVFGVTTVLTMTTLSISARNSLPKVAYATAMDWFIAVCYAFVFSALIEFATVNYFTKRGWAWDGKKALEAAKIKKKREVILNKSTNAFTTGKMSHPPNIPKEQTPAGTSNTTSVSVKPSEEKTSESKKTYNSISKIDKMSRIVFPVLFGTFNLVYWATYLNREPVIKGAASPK
Chain of human recombinant GABAA α5β3γ2 receptor (P28472 26-473 partner): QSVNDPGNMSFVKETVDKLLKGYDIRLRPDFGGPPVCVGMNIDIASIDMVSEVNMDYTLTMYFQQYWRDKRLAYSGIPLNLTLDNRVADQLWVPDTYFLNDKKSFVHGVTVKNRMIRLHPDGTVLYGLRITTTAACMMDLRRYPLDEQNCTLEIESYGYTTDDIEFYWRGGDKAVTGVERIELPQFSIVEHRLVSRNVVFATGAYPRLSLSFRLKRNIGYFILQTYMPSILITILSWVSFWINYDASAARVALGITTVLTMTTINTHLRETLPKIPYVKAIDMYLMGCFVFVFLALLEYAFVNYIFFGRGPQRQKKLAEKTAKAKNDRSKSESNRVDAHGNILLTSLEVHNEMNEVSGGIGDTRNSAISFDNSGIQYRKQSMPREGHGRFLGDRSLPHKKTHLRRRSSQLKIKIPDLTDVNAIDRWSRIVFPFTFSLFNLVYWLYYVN
Chain of human recombinant GABAA α5β3γ2 receptor (P18507 40-475): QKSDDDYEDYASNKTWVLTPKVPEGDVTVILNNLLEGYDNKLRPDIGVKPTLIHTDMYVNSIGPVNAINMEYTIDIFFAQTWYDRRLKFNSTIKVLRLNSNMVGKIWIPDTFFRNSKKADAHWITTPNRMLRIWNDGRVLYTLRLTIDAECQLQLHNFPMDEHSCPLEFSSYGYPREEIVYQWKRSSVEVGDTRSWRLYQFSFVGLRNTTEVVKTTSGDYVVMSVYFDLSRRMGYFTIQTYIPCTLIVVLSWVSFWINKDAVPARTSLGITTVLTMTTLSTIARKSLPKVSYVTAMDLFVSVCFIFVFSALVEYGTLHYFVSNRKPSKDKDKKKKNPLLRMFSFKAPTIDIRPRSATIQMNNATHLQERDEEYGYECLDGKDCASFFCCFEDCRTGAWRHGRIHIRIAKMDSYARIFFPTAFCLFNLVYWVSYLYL

Row | Compound | Ki [nM]
1 | Cc1ccc(-c2noc(C)c2COc2cc3c(nn2)CN(C(=O)CF)CC3)cn1 [Example 30, 2-fluoro-1-(3-{[5-methyl-3-(6-methylpyridin-3-yl)-1,2-oxazol-4-yl]methoxy}-5H,6H,7H,8H-pyrido[3,4-c]pyridazin-7-yl)ethan-1-one] | 1.9
2 | Cc1nnn(-c2ccc(C(F)(F)F)nc2)c1COc1cc2c(cn1)CN(C(=O)C(C)C)CC2 [Example 50, 2-methyl-1-[6-({4-methyl-1-[6-(trifluoromethyl)pyridin-3-yl]-1H-1,2,3-triazol-5-yl}methoxy)-1,2,3,4-tetrahydro-2,7-naphthyridin-2-yl]propan-1-one] | 44
3 | CCC(=O)N1CCc2cc(OCc3c(C)nnn3-c3ccc(C(F)(F)F)nc3)ncc2C1 [Example 48, 1-[6-({4-methyl-1-[6-(trifluoromethyl)pyridin-3-yl]-1H-1,2,3-triazol-5-yl}methoxy)-1,2,3,4-tetrahydro-2,7-naphthyridin-2-yl]propan-1-one] | 33
4 | CC(=O)N1CCc2cc(OCc3c(C)nnn3-c3ccc(C(F)(F)F)nc3)ncc2C1 [Example 47, 1-[6-({4-methyl-1-[6-(trifluoromethyl)pyridin-3-yl]-1H-1,2,3-triazol-5-yl}methoxy)-1,2,3,4-tetrahydro-2,7-naphthyridin-2-yl]ethan-1-one] | 25
5 | Cc1ccc(-n2nnc(C)c2COc2cc3c(cn2)CN(C(=O)CC(C)C)CC3)cn1 [Example 41, 3-methyl-1-(6-{[4-methyl-1-(6-methylpyridin-3-yl)-1H-1,2,3-triazol-5-yl]methoxy}-1,2,3,4-tetrahydro-2,7-naphthyridin-2-yl)butan-1-one] | 48
6 | Cc1ccc(-n2nnc(C)c2COc2cc3c(cn2)CN(C(=O)CF)CC3)cn1 [Example 38, 2-fluoro-1-(6-{[4-methyl-1-(6-methylpyridin-3-yl)-1H-1,2,3-triazol-5-yl]methoxy}-1,2,3,4-tetrahydro-2,7-naphthyridin-2-yl)ethan-1-one] | 6.6
7 | CC(=O)N1CCc2cc(OCc3c(C)nnn3-c3ccc(C(F)(F)F)nc3)nnc2C1 [Example 53, 1-[3-({4-methyl-1-[6-(trifluoromethyl)pyridin-3-yl]-1H-1,2,3-triazol-5-yl}methoxy)-5,8-dihydropyrido[3,4-c]pyridazin-7(6H)-yl]ethanone] | 99.1
8 | Cc1ccc(-c2nnn(C)c2COc2cc3c(cn2)CN(C(=O)CF)CC3)cn1 [Example 68, 2-fluoro-1-(6-{[1-methyl-4-(6-methylpyridin-3-yl)-1H-1,2,3-triazol-5-yl]methoxy}-1,2,3,4-tetrahydro-2,7-naphthyridin-2-yl)ethan-1-one] | 9.1
9 | CCC(=O)N1CCc2cc(OCc3c(C)nnn3-c3ccc(C)nc3)ncc2C1 [Example 43, 1-(6-{[4-methyl-1-(6-methylpyridin-3-yl)-1H-1,2,3-triazol-5-yl]methoxy}-1,2,3,4-tetrahydro-2,7-naphthyridin-2-yl)propan-1-one] | 20
10 | Cc1nnn(-c2ccc(C(F)(F)F)nc2)c1COc1cc2c(cn1)CN(C(=O)CF)CC2 [Example 49, 2-fluoro-1-[6-({4-methyl-1-[6-(trifluoromethyl)pyridin-3-yl]-1H-1,2,3-triazol-5-yl}methoxy)-1,2,3,4-tetrahydro-2,7-naphthyridin-2-yl]ethan-1-one] | 15
11 | Cc1nnn(-c2ccc(C(F)F)nc2)c1COc1cc2c(cn1)CN(C(=O)CF)CC2 [Example 57, 2-fluoro-1-[6-({4-methyl-1-[6-(difluoromethyl)pyridin-3-yl]-1H-1,2,3-triazol-5-yl}methoxy)-1,2,3,4-tetrahydro-2,7-naphthyridin-2-yl]ethan-1-one] | 0.9

Other lines, results leading:

Row | Ki [nM] | Compound
12 | 3.5 | Cc1ccc(-c2noc(C)c2COc2cc3c(cn2)CN(C(=O)CS(C)(=O)=O)CC3)cn1 [Example 5, 2-methanesulfonyl-1-(6-{[5-methyl-3-(6-methylpyridin-3-yl)-1,2-oxazol-4-yl]methoxy}-1,2,3,4-tetrahydro-2,7-naphthyridin-2-yl)ethan-1-one]
13 | 7.9 | CC(=O)N1CCc2cc(OCc3c(C)nnn3-c3ccc(C)nc3)ncc2C1 [Example 37, 1-(6-{[4-methyl-1-(6-methylpyridin-3-yl)-1H-1,2,3-triazol-5-yl]methoxy}-1,2,3,4-tetrahydro-2,7-naphthyridin-2-yl)ethan-1-one]
14 | 52 | Cc1ccc(-c2nnn(C)c2COc2cc3c(cn2)CN(C(=O)C2CC2)CC3)cn1 [Example 65, 2-cyclopropanecarbonyl-6-{[1-methyl-4-(6-methylpyridin-3-yl)-1H-1,2,3-triazol-5-yl]methoxy}-1,2,3,4-tetrahydro-2,7-naphthyridine]
15 | 2.3 | CC(=O)N1CCc2cc(OCc3c(-c4ccc(C)nc4)noc3C)nnc2C1 [Example 24, 1-(3-{[5-methyl-3-(6-methylpyridin-3-yl)-1,2-oxazol-4-yl]methoxy}-5H,6H,7H,8H-pyrido[3,4-c]pyridazin-7-yl)ethan-1-one]
16 | 9.4 | Cc1ccc(-c2noc(C)c2COc2cc3c(cn2)CN(C(=O)[C@@H]2CCC(=O)N2C)CC3)cn1 [Example 22, (5S)-1-methyl-5-(6-{[5-methyl-3-(6-methylpyridin-3-yl)-1,2-oxazol-4-yl]methoxy}-1,2,3,4-tetrahydro-2,7-naphthyridine-2-carbonyl)pyrrolidin-2-one]
17 | 33 | CCC(=O)N1CCc2cc(OCc3c(-c4ccc(C)nc4)nnn3C)ncc2C1 [Example 62, 1-(6-{[1-methyl-4-(6-methylpyridin-3-yl)-1H-1,2,3-triazol-5-yl]methoxy}-1,2,3,4-tetrahydro-2,7-naphthyridin-2-yl)propan-1-one]
18 | 8.3 | Cc1ccc(-c2noc(C)c2COc2cc3c(cn2)CN(C(=O)C2CC(=O)N(C)C2)CC3)cn1 (centres unmarked) [Example 15, 1-methyl-4-(6-{[5-methyl-3-(6-methylpyridin-3-yl)-1,2-oxazol-4-yl]methoxy}-1,2,3,4-tetrahydro-2,7-naphthyridine-2-carbonyl)pyrrolidin-2-one]
19 | 6.9 | CCN1CC(C(=O)N2CCc3cc(OCc4c(-c5ccc(C)nc5)noc4C)ncc3C2)CC1=O (centres unmarked) [Example 23, 1-ethyl-4-(6-{[5-methyl-3-(6-methylpyridin-3-yl)-1,2-oxazol-4-yl]methoxy}-1,2,3,4-tetrahydro-2,7-naphthyridine-2-carbonyl)pyrrolidin-2-one]
20 | 30 | Cc1ccc(-n2nnc(C)c2COc2cc3c(cn2)CN(C(=O)C(C)C)CC3)cn1 [Example 39, 2-methyl-1-(6-{[4-methyl-1-(6-methylpyridin-3-yl)-1H-1,2,3-triazol-5-yl]methoxy}-1,2,3,4-tetrahydro-2,7-naphthyridin-2-yl)propan-1-one]
21 | 38 | Cc1ccc(-c2noc(C)c2COc2cc3c(cn2)CN(C(=O)OC(C)(C)C)CC3)cn1 [Example 2, tert-butyl 6-{[5-methyl-3-(6-methylpyridin-3-yl)-1,2-oxazol-4-yl]methoxyl}-1,2,3,4-tetrahydro-2,7-naphthyridine-2-carboxylate]
22 | 6 | Cc1ccc(-c2noc(C)c2COc2cc3c(cn2)CN(C(=O)c2cccnc2)CC3)cn1 [Example 7, 6-{[5-methyl-3-(6-methylpyridin-3-yl)-1,2-oxazol-4-yl]methoxy}-2-(pyridine-3-carbonyl)-1,2,3,4-tetrahydro-2,7-naphthyridine]
23 | 7.2 | Cc1ccc(-c2noc(C)c2COc2cc3c(cn2)CN(C(=O)C2CCOC2)CC3)cn1 (centres unmarked) [Example 12, 6-{[5-methyl-3-(6-methylpyridin-3-yl)-1,2-oxazol-4-yl]methoxy}-2-(oxolane-3-carbonyl)-1,2,3,4-tetrahydro-2,7-naphthyridine]
24 | 22 | CC(=O)N1CCc2cc(OCc3c(-c4ccc(C)nc4)nnn3C)ncc2C1 [Example 60, 1-(6-{[1-methyl-4-(6-methylpyridin-3-yl)-1H-1,2,3-triazol-5-yl]methoxy}-1,2,3,4-tetrahydro-2,7-naphthyridin-2-yl)ethan-1-one]
25 | 9 | Cc1ccc(-c2noc(C)c2COc2cc3c(cn2)CN(C(=O)C2CCC(=O)N(C)C2)CC3)cn1 (centres unmarked) [Example 20, 1-methyl-5-(6-{[5-methyl-3-(6-methylpyridin-3-yl)-1,2-oxazol-4-yl]methoxy}-1,2,3,4-tetrahydro-2,7-naphthyridine-2-carbonyl)piperidin-2-one]
26 | 4.3 | Cc1ccc(-c2noc(C)c2COc2cc3c(nn2)CN(C(=O)C(C)C)CC3)cn1 [Example 31, 2-methyl-1-(3-{[5-methyl-3-(6-methylpyridin-3-yl)-1,2-oxazol-4-yl]methoxy}-5H,6H,7H,8H-pyrido[3,4-c]pyridazin-7-yl)propan-1-one]
